Results as given in the NIST ThermoML archive (doi:10.1021/je900387e).
Numbers after ± are expanded uncertainties.

Test: xn = mol fraction of the nth substance listed
Conditions: Liquid, Pycnometric method

CCCCBr [1-bromobutane] + O=C=O
Conditions | mass density [kg/m3]
327.6 K, 10630 kPa, x1 = 0.0683 | 752 ± 4
327.6 K, 10660 kPa, x1 = 0.0461 | 688 ± 4
327.6 K, 10730 kPa, x1 = 0.0989 | 833 ± 4
327.6 K, 10780 kPa, x1 = 0.1495 | 951 ± 4
327.6 K, 10840 kPa, x1 = 0.0461 | 698 ± 4
327.6 K, 10920 kPa, x1 = 0.0683 | 762 ± 4
327.6 K, 10990 kPa, x1 = 0.0461 | 706 ± 4
327.6 K, 11000 kPa, x1 = 0.1495 | 954 ± 4
327.6 K, 11060 kPa, x1 = 0.0989 | 839 ± 4
327.6 K, 11240 kPa, x1 = 0.0683 | 773 ± 4
327.6 K, 11280 kPa, x1 = 0.1495 | 958 ± 4
327.6 K, 11310 kPa, x1 = 0.0989 | 845 ± 4
327.6 K, 11520 kPa, x1 = 0.1495 | 961 ± 4
327.6 K, 11590 kPa, x1 = 0.0683 | 783 ± 4
327.6 K, 11620 kPa, x1 = 0.0989 | 851 ± 4
327.6 K, 11790 kPa, x1 = 0.1495 | 964 ± 4
327.6 K, 11960 kPa, x1 = 0.0989 | 857 ± 4
327.6 K, 11990 kPa, x1 = 0.0683 | 794 ± 4
327.6 K, 12050 kPa, x1 = 0.1495 | 967 ± 4
327.6 K, 12310 kPa, x1 = 0.0989 | 862 ± 4
327.6 K, 12370 kPa, x1 = 0.1495 | 970 ± 4
327.6 K, 12460 kPa, x1 = 0.0683 | 805 ± 4
327.6 K, 12670 kPa, x1 = 0.1495 | 974 ± 4
327.6 K, 12710 kPa, x1 = 0.0989 | 869 ± 4
327.6 K, 13000 kPa, x1 = 0.1495 | 977 ± 4
327.6 K, 13040 kPa, x1 = 0.0683 | 817 ± 4
327.6 K, 13110 kPa, x1 = 0.0989 | 875 ± 4
327.6 K, 13350 kPa, x1 = 0.1495 | 981 ± 4
327.6 K, 13520 kPa, x1 = 0.0989 | 880 ± 4
327.6 K, 13650 kPa, x1 = 0.0683 | 829 ± 4
327.6 K, 13660 kPa, x1 = 0.1495 | 984 ± 4
327.6 K, 13960 kPa, x1 = 0.1495 | 987 ± 4
327.6 K, 13980 kPa, x1 = 0.0989 | 887 ± 4
327.6 K, 13990 kPa, x1 = 0.0683 | 835 ± 4
327.6 K, 14320 kPa, x1 = 0.1495 | 990 ± 4
327.6 K, 14470 kPa, x1 = 0.0989 | 893 ± 4
327.6 K, 14690 kPa, x1 = 0.1495 | 993 ± 4
327.6 K, 14740 kPa, x1 = 0.0683 | 848 ± 4
327.6 K, 14960 kPa, x1 = 0.0683 | 851 ± 4
327.6 K, 15000 kPa, x1 = 0.0989 | 900 ± 4
327.6 K, 15090 kPa, x1 = 0.1495 | 997 ± 4
332.4 K, 9170 kPa, x1 = 0.0245 | 317 ± 4
332.4 K, 9200 kPa, x1 = 0.0245 | 319 ± 4
332.4 K, 9250 kPa, x1 = 0.0245 | 323 ± 4
332.4 K, 9300 kPa, x1 = 0.0245 | 328 ± 4
332.4 K, 9350 kPa, x1 = 0.0245 | 332 ± 4
332.4 K, 9350 kPa, x1 = 0.1495 | 896 ± 4
332.4 K, 9400 kPa, x1 = 0.0245 | 336 ± 4
332.4 K, 9440 kPa, x1 = 0.0245 | 340 ± 4
332.4 K, 9490 kPa, x1 = 0.0245 | 345 ± 4
332.4 K, 9540 kPa, x1 = 0.0245 | 349 ± 4
332.4 K, 9580 kPa, x1 = 0.0245 | 354 ± 4
332.4 K, 9580 kPa, x1 = 0.1495 | 900 ± 4
332.4 K, 9640 kPa, x1 = 0.0245 | 359 ± 4
332.4 K, 9670 kPa, x1 = 0.0989 | 750 ± 4
332.4 K, 9690 kPa, x1 = 0.0245 | 364 ± 4
332.4 K, 9740 kPa, x1 = 0.0245 | 369 ± 4
332.4 K, 9760 kPa, x1 = 0.1495 | 903 ± 4
332.4 K, 9780 kPa, x1 = 0.0989 | 755 ± 4
332.4 K, 9790 kPa, x1 = 0.0245 | 375 ± 4
332.4 K, 9810 kPa, x1 = 0.0461 | 512 ± 4
332.4 K, 9830 kPa, x1 = 0.0461 | 516 ± 4
332.4 K, 9840 kPa, x1 = 0.0245 | 380 ± 4
332.4 K, 9840 kPa, x1 = 0.0683 | 622 ± 4
332.4 K, 9870 kPa, x1 = 0.0683 | 625 ± 4
332.4 K, 9890 kPa, x1 = 0.0461 | 521 ± 4
332.4 K, 9890 kPa, x1 = 0.0989 | 759 ± 4
332.4 K, 9890 kPa, x1 = 0.1495 | 906 ± 4
332.4 K, 9900 kPa, x1 = 0.0245 | 386 ± 4
332.4 K, 9900 kPa, x1 = 0.0683 | 629 ± 4
332.4 K, 9930 kPa, x1 = 0.0461 | 527 ± 4
332.4 K, 9950 kPa, x1 = 0.0245 | 392 ± 4
332.4 K, 9960 kPa, x1 = 0.0683 | 636 ± 4
332.4 K, 9970 kPa, x1 = 0.0461 | 533 ± 4
332.4 K, 10000 kPa, x1 = 0.0683 | 640 ± 4
332.4 K, 10000 kPa, x1 = 0.0989 | 764 ± 4
332.4 K, 10010 kPa, x1 = 0.0245 | 398 ± 4
332.4 K, 10020 kPa, x1 = 0.0245 | 399 ± 4
332.4 K, 10020 kPa, x1 = 0.0461 | 539 ± 4
332.4 K, 10040 kPa, x1 = 0.1495 | 909 ± 4
332.4 K, 10060 kPa, x1 = 0.0461 | 546 ± 4
332.4 K, 10070 kPa, x1 = 0.0683 | 647 ± 4
332.4 K, 10110 kPa, x1 = 0.0989 | 769 ± 4
332.4 K, 10120 kPa, x1 = 0.0461 | 552 ± 4
332.4 K, 10150 kPa, x1 = 0.0683 | 654 ± 4
332.4 K, 10180 kPa, x1 = 0.0461 | 559 ± 4
332.4 K, 10190 kPa, x1 = 0.1495 | 912 ± 4
332.4 K, 10240 kPa, x1 = 0.0461 | 566 ± 4
332.4 K, 10240 kPa, x1 = 0.0683 | 662 ± 4
332.4 K, 10240 kPa, x1 = 0.0989 | 774 ± 4
332.4 K, 10300 kPa, x1 = 0.0461 | 573 ± 4
332.4 K, 10340 kPa, x1 = 0.0683 | 670 ± 4
332.4 K, 10370 kPa, x1 = 0.0461 | 580 ± 4
332.4 K, 10370 kPa, x1 = 0.0989 | 778 ± 4
